Patent publication US20100136541A1, “IDENTIFICATION AND VERIFICATION OF METHYLATION MARKER SEQUENCES” (Siemens Healthcare Diagnostics Inc., priority 2003, published 2010)

How the values were obtained:
SCNN1B CpG sites = experiment: Bisulfite sequencing of CpG sites, cell lines treated vs. untreated; type: cell-based, human; set-up: unit not given here
Description: (§1) Samples: Paired tumor and adjacent normal tissues from twelve colorectal cancer patients were collected under institutional review board (IRB) approval with patient consent. Tissues were flash frozen in LN2 and stored at −80° C. prior to DNA extraction. All tissues were blinded. Cell lines: A panel of five colorectal cancer cell lines was used. Cells were grown to ˜50% confluence in the appropriate culture medium prior to treatment with 5-aza-2′-deoxycytidine. Optimal concentrations and incubation times (Table 4) were determined by assaying for reduction of p16 promoter methylation using MSP. Cells were harvested, pelleted by centrifugation, and washed twice in Hanks buffered saline solution. Cell pellets were stored at −80° C. Control cells were maintained simultaneously without 5-aza-2′-deoxycytidine treatment. DNA extraction: DNA was purified from tissues and cell lines using the QIAGEN DNeasy® Tissue Kit. Approximately 25-35 mg of each tissue was pulverized under liquid nitrogen before extraction. Elution volume for tissues was 2004. A final volume of […] of cell line DNA was extracted from 15 to 254 of each packed cell pellet (between 10^6-10^7 cells). Purified DNA was stored at −20° C. Bisulfite modification: Modification was performed according to the Frommer method (See Frommer M, et al., PNAS, 89: 1827-1831 (1992).) One μg genomic DNA was diluted into 50 μl with distilled H2O, 5.5 μl of 2M NaOH was added, and the mixture incubated at 37° C. for 10 minutes (to create single stranded DNA). Thirty μl of freshly prepared 10 mM hydroquinone (Sigma) was added to each tube. Five hundred twenty μl of freshly prepared 3M sodium bisulfite (Sigma S-8890), pH 5.0 was then added. Reagents were thoroughly mixed and then covered with mineral oil and incubated at 50° C. for 16 hours. After removing the oil, 1 ml of Wizard DNA Cleanup Resin (Promega A7280) was added to each tube prior to applying the mixture to miniprep column in the DNA Wizard Cleanup kit. The column was washed with 2 ml of 80% isopropanol, and eluted with 50 μl of heated water (60-70° C.). 5.5 μl of 3 M NaOH to was added to each tube, and incubated at room temperature for 5 minutes. Then 1 μl glycogen was added as carrier, 33 μl of 10 M NH4Ac, and 3 volumes of ethanol for DNA precipitation. The pellet was spun down and washed with 70% ethanol, dried and resuspended in 20 μl water. In some instances, the EZ DNA Methylation Kit (Zymo Research) which uses a simplified version of the Frommer method was used. In these cases, 1 μg of genomic DNA was denatured in 0.3M NaOH for 15 minutes at 37° C. followed by incubation at 50° C. for 16 hours in 0.5 mM hydroquinone and a saturated solution of sodium bisulfite at pH 5. Modified DNA was bound to the Zymo column membrane, then desulfonated with 0.3M NaOH for 15 minutes at room temperature. DNA was washed and resuspended with 50 μL 10 mM Tris-HCl-0.1 mM EDTA, pH 7.5 and stored at −20° C. The bisulfite reaction results in conversion of an unmethylated cytosine to uracil. Methylated cytosine remains unchanged after the bisulfite reaction. The resulting bisulfite modified DNA is single stranded. PCR amplification for sequencing: Primers were designed to amplify both methylated and unmethylated fragments of DNA (Table 5). Five μL of modified DNA ( 1/10 of modification reaction) was amplified first in a 254, reaction volume containing 10 mM Tris-HCl pH8.3, 50 mM KCl, 1.5 mM to 2 mM MgCl2, (Applied Biosystems), 0.25 mM each dNTP, 0.5 unit AmpliTaq (Applied Biosystems), and sequencing primers (each at 200 nM). Cycling conditions were 10 minutes at 95° C., 40 cycles of 30 seconds at 95° C., 30 seconds at 54-62° C., 30 seconds at 72° C., subsequently followed by extension for 5 minutes at 72° C.
(§2) Reaction products were purified either by the shrimp-alkaline phosphatase-Exol standard method or on the Qiagen Qiaquick PCR clean-up column and eluted in 30 μL 10 mM Tris-HCl, pH8.5. […]

GPX3 CpG sites = experiment: as above; type: cell-based, human; set-up: unit not given here; conditions: cell line pool
Description: as §1, §2

## Nc1ncn([C@H]2C[C@H](O)[C@@H](CO)O2)c(=O)n1 [5-aza-2′-deoxycytidine]
SCNN1B CpG sites; HT29 treated
  SCNN1B sequencing result (methylation) at CpG site #179: 70
  SCNN1B sequencing result (methylation) at CpG site #192: 90
  SCNN1B sequencing result (methylation) at CpG site #203: 36
  SCNN1B sequencing result (methylation) at CpG site #223: 79
  SCNN1B sequencing result (methylation) at CpG site #228: 74
  SCNN1B sequencing result (methylation) at CpG site #230: 67
  SCNN1B sequencing result (methylation) at CpG site #234: 69
  SCNN1B sequencing result (methylation) at CpG site #238: 75
  SCNN1B sequencing result (methylation) at CpG site #245: 65
  SCNN1B sequencing result (methylation) at CpG site #267: 55
  SCNN1B sequencing result (methylation) at CpG site #295: 26
SCNN1B CpG sites; LS123 treated
  SCNN1B sequencing result (methylation) at CpG site #179: 56
  SCNN1B sequencing result (methylation) at CpG site #192: 63
  SCNN1B sequencing result (methylation) at CpG site #203: 42
  SCNN1B sequencing result (methylation) at CpG site #223: 90
  SCNN1B sequencing result (methylation) at CpG site #228: 87
  SCNN1B sequencing result (methylation) at CpG site #230: 82
  SCNN1B sequencing result (methylation) at CpG site #234: 80
  SCNN1B sequencing result (methylation) at CpG site #238: 77
  SCNN1B sequencing result (methylation) at CpG site #245: 81
  SCNN1B sequencing result (methylation) at CpG site #267: 59
  SCNN1B sequencing result (methylation) at CpG site #295: 23
SCNN1B CpG sites; LS174T treated
  SCNN1B sequencing result (methylation) at CpG site #179: 7
  SCNN1B sequencing result (methylation) at CpG site #192: 56
  SCNN1B sequencing result (methylation) at CpG site #203: 40
  SCNN1B sequencing result (methylation) at CpG site #223: 75
  SCNN1B sequencing result (methylation) at CpG site #228: 81
  SCNN1B sequencing result (methylation) at CpG site #230: 72
  SCNN1B sequencing result (methylation) at CpG site #234: 70
  SCNN1B sequencing result (methylation) at CpG site #238: 55
  SCNN1B sequencing result (methylation) at CpG site #245: 40
  SCNN1B sequencing result (methylation) at CpG site #267: 47
  SCNN1B sequencing result (methylation) at CpG site #295: 7
SCNN1B CpG sites; SW480 treated
  SCNN1B sequencing result (methylation) at CpG site #179: 80
  SCNN1B sequencing result (methylation) at CpG site #192: 44
  SCNN1B sequencing result (methylation) at CpG site #203: 21
  SCNN1B sequencing result (methylation) at CpG site #223: 89
  SCNN1B sequencing result (methylation) at CpG site #228: 83
  SCNN1B sequencing result (methylation) at CpG site #230: 80
  SCNN1B sequencing result (methylation) at CpG site #234: 80
  SCNN1B sequencing result (methylation) at CpG site #238: 87
  SCNN1B sequencing result (methylation) at CpG site #245: 51
  SCNN1B sequencing result (methylation) at CpG site #267: 57
  SCNN1B sequencing result (methylation) at CpG site #295: 69
SCNN1B CpG sites; SW620 treated
  SCNN1B sequencing result (methylation) at CpG site #179: 59
  SCNN1B sequencing result (methylation) at CpG site #192: 88
  SCNN1B sequencing result (methylation) at CpG site #203: 30
  SCNN1B sequencing result (methylation) at CpG site #223: 93
  SCNN1B sequencing result (methylation) at CpG site #228: 95
  SCNN1B sequencing result (methylation) at CpG site #230: 94
  SCNN1B sequencing result (methylation) at CpG site #234: 91
  SCNN1B sequencing result (methylation) at CpG site #238: 86
  SCNN1B sequencing result (methylation) at CpG site #245: 26
  SCNN1B sequencing result (methylation) at CpG site #267: 67
  SCNN1B sequencing result (methylation) at CpG site #295: 23
GPX3 CpG sites
  Sequencing results for GPX3, CpG site #25: 70
  Sequencing results for GPX3, CpG site #27: 100
  Sequencing results for GPX3, CpG site #31: 67
  Sequencing results for GPX3, CpG site #49: 70
  Sequencing results for GPX3, CpG site #56: 98
  Sequencing results for GPX3, CpG site #75: 72
  Sequencing results for GPX3, CpG site #84: 77
  Sequencing results for GPX3, CpG site #86: 74
  Sequencing results for GPX3, CpG site #101: 84
  Sequencing results for GPX3, CpG site #126: 75
  Sequencing results for GPX3, CpG site #129: 80
  Sequencing results for GPX3, CpG site #142: 97
  Sequencing results for GPX3, CpG site #146: 80
  Sequencing results for GPX3, CpG site #167: 89
